Our source for the EC50 and viability values is patent publication US10577362B2, “Substituted 2, 4-diamino-quinoline derivatives for use in the treatment of proliferative diseases” (GENOSCIENCE PHARMA, priority 2016, dated 2020).

Structures can show the parent of a compound that is named as a salt.

What all share (format): cell-based, human
In test [1] the test system is HCT-116 (colorectal carcinoma) cell line. Briefly: CellTiter-Glo luminescent cell viability assay, HCT-116. As to conditions: Homo sapiens; for EC50: HCT-116 cell line, 72 h incubation, CellTiter-Glo, read-out: EC50, growth inhibition of HCT-116; for viability at 4 µM: HCT-116, compound at 4 μM; for viability at 4 µM / viability at 10 µM: 72 h; for viability at 10 µM: HCT-116, compound at 10 μM. Here is the method: (§1) All cell lines were maintained in medium containing 1% penicillin-streptomycin (Dutscher, P06-07100) and 10% Fetal Bovine Serum (Hyclone Dutscher, RZK35922) cultured at 37° C. with 5% CO2. HepG2 (hepatocellular carcinoma), cell line was cultured in Dulbecco's modified Eagle's medium low glucose (Gibco, 21885025), Huh7 (hepatocellular carcinoma), HCT-116 (colorectal carcinoma), PANC-1 (prancreatic carcinoma) and A375 (malignant melanoma) cell lines were cultured in Dulbecco's modified Eagle's medium (Dutscher, L0103). MOLM-14 (acute myeloid leukemia) cell line was maintained in MEM alpha medium (Gibco, 22561-021). 786-0 (renal adenocarcinoma) cell lines were maintained in RPMI 1640 medium (Dutscher, L0498).
(§2) Cell viability was measured using the CellTiter-Glo® luminescent cell viability assay as described by the manufacturer (Promega, Ref G7571) using an Infinite F200Pro luminometer (Tecan). Briefly, for adherent cells, cells were plated onto 96-well plates (white with clear bottom) in 90 μL of media per well and were allowed to grow overnight before the assay. For cells growing in suspension, cells were plated onto 96-well plates 1 h before the assay.
(§3) Compounds were resuspended in H2O or DMSO and added at different concentrations to each well, and cell cultures were incubated for 72 h. Each diluent (H2O or DMSO) were used as a control, and all compounds were tested in a constant percentage of H2O or DMSO. On the day of the reading, plates are equilibrated 30 min at room temperature before the addition of 100 μL of CellTiter-Glo® and luminescence was measured using an Infinite F200Pro (Tecan). % cell viability were expressed as a percentage of the signal obtained for cell cultures treated with diluent. EC50 values were determined as the dose of compound required to reduce luminescent values to 50% of the signal obtained for cell cultures treated with diluent. The experimental data were analyzed using a computer program, Graphpad Prism v5 (GraphPad Software, Inc. La Jolla, Calif.). All points were at least done in duplicate.
On the technique in general: Cellular ATP, detected with luciferase, serves as a proxy for viable cell number.

Test [2] concerns HepG2 (hepatocellular carcinoma) cell line. Briefly: CellTiter-Glo luminescent cell viability assay, HepG2. The conditions noted are these: Homo sapiens; for EC50: HepG2 cell line, 72 h incubation, CellTiter-Glo, read-out: EC50, growth inhibition of HepG2; for viability at 4 µM / viability at 10 µM: HepG2, HepG, 72 h; for viability at 4 µM: compound at 4 μM; for viability at 10 µM: compound at 10 μM. Here is the method:
as §1, §2, §3

Test [3] deals with 786-O (renal adenocarcinoma) cell line. Briefly: CellTiter-Glo luminescent cell viability assay, 786-O. As to conditions: Homo sapiens, 786-0; for EC50: 786-O cell line, 72 h incubation, CellTiter-Glo, read-out: EC50, growth inhibition of 786-O; for viability at 4 µM / viability at 10 µM: 786-O, 72 h; for viability at 4 µM: compound at 4 μM; for viability at 10 µM: compound at 10 μM. Here is the method:
as §1, §2, §3

Test [4] concerns Huh7 (hepatocellular carcinoma) cell line. Description: CellTiter-Glo luminescent cell viability assay, Huh7. As to conditions: Homo sapiens, Huh-7; for EC50: Huh7 cell line, 72 h incubation, CellTiter-Glo, read-out: EC50, growth inhibition of Huh7; for viability at 4 µM: Huh7, compound at 4 μM; for viability at 4 µM / viability at 10 µM: 72 h; for viability at 10 µM: Huh7, compound at 10 μM. Here is the method: as §1, §2, §3

The test system of test [5] is MOLM-14 (acute myeloid leukemia) cell line. Briefly: CellTiter-Glo luminescent cell viability assay, MOLM-14. The conditions noted are these: Homo sapiens; for EC50: MOLM-14 cell line, 72 h incubation, CellTiter-Glo, read-out: EC50, growth inhibition of MOLM-14; for viability at 4 µM: MOLM-14, compound at 4 μM; for viability at 4 µM / viability at 10 µM: 72 h; for viability at 10 µM: MOLM-14, compound at 10 μM. Here is the method: as §1, §2, §3

Test [6] relates to A375 (malignant melanoma) cell line. Description: CellTiter-Glo luminescent cell viability assay, A375. The conditions noted are these: Homo sapiens, A-375; for EC50: A375 cell line, 72 h incubation, CellTiter-Glo, read-out: EC50, growth inhibition of A375; for viability at 4 µM: A375, compound at 4 μM; for viability at 4 µM / viability at 10 µM: 72 h; for viability at 10 µM: A375, compound at 10 μM. Here is the method:
as §1, §2, §3

Broadly, the EC50 is the concentration needed to bring the measured effect to its halfway point. Broadly, the viability is a read-out of living cells in per cent, often relative to untreated cells.

Regarding `Cc1c(F)ccc2c(N3CCC(NC(C)(C)C)CC3)cc(NCc3ccc(Cl)cc3)nc12` [Compound 572, 2-(4-chlorobenzylamino)-4-[4-(tert-butylamino)piperidin-1-yl]-7-fluoro-8-methylquinoline], the EC50 in test [1], in test [2], in test [3], in test [4], in test [5] and in test [6] was 0.5 to 5 µM throughout.

Consider `COc1cc(C)nc(Nc2ccc(Nc3nc4ccccc4c(N4CCC(NC(C)(C)C)CC4)c3C#N)cc2C)n1` [Compound 510CN, 2-[4-(4-methyl-6-methoxypyrimidin-2-ylamino)-3-methylphenylamino]-3-cyano-4-(4-tert-butylaminopiperidin-1-yl)quinoline], for which the viability at 4 µM in test [1] is 24.8%; in test [2], 54.6%; in test [3] it was 2.8%; in test [4], 62.6%; in test [5], 74.5%; in test [6] it was 57.4%. Moreover, the viability at 10 µM is 0.1% in test [1]; 0.1% in test [2]; 0.1% in test [3]; 0.3% in test [4]; 0.2% in test [5]; 0.1% in test [6].

In the case of `CC(C)(C)NC1CCN(c2c(C#N)c(NCc3ccc(Cl)cc3)nc3ccccc23)CC1` [Compound 352CN, 2-(4-chlorobenzylamino)-3-cyano-4-[4-(tert-butylamino)piperidin-1-yl]quinoline], the viability at 4 µM in test [1] came out at 43.9%; in test [2], 71.2%; in test [3] it was 52.4%; in test [4], 73.2%; in test [5], 76.9%; in test [6] it was 29.1%. For the same compound, the viability at 10 µM came out at 0.5% in test [1]; 0.6% in test [2]; 0.5% in test [3]; 0.6% in test [4]; 0.6% in test [5]; 0.5% in test [6].

On to `Cc1cc(CNc2nc3ccccc3c(N3CCC(NC(C)(C)C)CC3)c2C#N)ccc1Nc1nccc(-c2cccnc2)n1` [Compound 498CN, 2-[4-(4-(pyridin-3-yl)pyrimidin-2-ylamino)-3-methylbenzylamino]-3-cyano-4-(4-tert-butylaminopiperidin-1-yl)quinoline], for which the viability at 4 µM was 0.2% in test [1]; 0.2% in test [2]; 0.2% in test [3]; 58.5% in test [4]; 0.3% in test [5]; 0.2% in test [6]. Also, the viability at 10 µM turned out to be 0.1% in test [1]; 0.1% in test [2]; 0.1% in test [3]; 0.2% in test [4]; 0.2% in test [5]; 0.1% in test [6].

For the compound `CNC(=O)C1CCN(c2cc(NCc3ccc(Cl)cc3)nc3ccccc23)CC1` [Compound 1598, 2-(4-chlorobenzylamino)-4-[4-(methylcarbamoyl)piperidin-1-yl]quinoline hydrochloride], the EC50 in test [1] was 0.5 to 5 µM; in test [2] it was 0.5 to 5 µM; in test [3] it was 5 to 10 µM; in test [4], 0.5 to 5 µM; in test [5], 5 to 10 µM; in test [6], 5 to 10 µM.

`N#Cc1c(NCc2ccc(Cl)cc2)nc2ccccc2c1N1CCC(Oc2ccc(Cl)cc2)C1` (stereo not drawn) [Compound 3336CN, 2-(4-chlorobenzylamino)-3-cyano-4-[3-(4-chlorophenoxy)pyrrolidin1--yl]quinoline]: the viability at 4 µM in test [1] is 99%; in test [2], 75.4%; in test [3], 82.8%; in test [4], 95.6%; in test [5], 98.8%; in test [6] it was 106%. Moreover, the viability at 10 µM in test [1] is 92%; in test [2], 74.5%; in test [3] it was 79.8%; in test [4] it was 93.8%; in test [5] it was 89.8%; in test [6], 107%.

With `Cc1ccc(OC2CCCN(c3c(C#N)c(NCc4ccc(Cl)cc4)nc4ccccc34)C2)cc1` (stereo not drawn) [Compound 3234CN, 2-(4-chlorobenzylamino)-3-cyano-4-[3-(4-methylphenoxy)piperidin-1-yl]quinoline], the viability at 4 µM is 93.8% in test [1]; 89.8% in test [2]; 89.8% in test [3]; 99.2% in test [4]; 94.4% in test [5]; 107% in test [6]. For the same compound, the viability at 10 µM amounted to 90.7% in test [1]; 80.5% in test [3]; 95.5% in test [4]; 92% in test [5]; 102% in test [6].

Regarding `Cn1ncnc1Nc1nc2ccccc2c(N2CCC(NC(C)(C)C)CC2)c1C#N` [Compound 3270CN, 2-[(1-methyl-1H-1,2,4-triazol-5-yl)amino]-3-cyano-4-[4-(tert-butylamino)piperidin-1-yl]quinoline], the viability at 4 µM in test [1] was found to be 47.4%; in test [2], 37.5%; in test [3] it was 52.6%; in test [4], 79.6%; in test [5] it was 33.2%; in test [6], 49.2%. The viability at 10 µM in test [1] came to 6.3%; in test [2], 24.1%; in test [3], 34.7%; in test [4] it was 32.3%; in test [5], 1%; in test [6], 31%. Besides, the EC50 in test [2] lay within 0.5 to 5 µM; in test [3] it was 5 to 10 µM; in test [4], 5 to 10 µM; in test [5], 0.5 to 5 µM; in test [6], 0.5 to 5 µM.

As to `COC[C@@H]1CCCN1c1cc(NCc2ccc(Cl)cc2)nc2ccccc12` [Compound 2310, (2S) 2-(4-chlorobenzylamino)-4-[2-(methoxymethyl)pyrrolidin-1-yl]quinoline, hydrochloride], the EC50 in test [1] is 0.5 to 5 µM; in test [2] it was 0.5 to 5 µM; in test [3], 5 to 10 µM; in test [4], 0.5 to 5 µM; in test [5] it was 0.5 to 5 µM; in test [6], 0.5 to 5 µM.

With `OC1CCN(c2cc(NCc3ccc(Cl)cc3)nc3ccccc23)CC1` [Compound 2916, 2-(4-chlorobenzylamino)-4-(4-hydroxypiperidin-1-yl)quinoline, hydrochloride], the EC50 in test [1] was in the range of 5 to 10 µM; in test [2] it was 0.5 to 5 µM; in test [3], 5 to 10 µM; in test [4], 0.5 to 5 µM; in test [6] it was 5 to 10 µM.

With `O=C(C1CCN(c2cc(NCc3ccc(Cl)cc3)nc3ccccc23)CC1)N1CCCC1` [Compound 1648, 2-(4-chlorobenzylamino)-4-[4-(pyrrolidine-1-carbonyl)piperidin-1-yl]quinoline, hydrochloride], the EC50 in test [4] fell in the range of 0.5 to 5 µM.

With `Cc1cc(F)cc2c(N3CCC(NC(C)(C)C)CC3)cc(NCc3ccc(Cl)cc3)nc12` [Compound 580, 2-(4-chlorobenzylamino)-4-[4-(tert-butylamino)piperidin-1-yl]-6-fluoro-8-methylquinoline], the EC50 in test [1], in test [2], in test [3], in test [5] and in test [6] was 0.5 to 5 µM each time.
